According to US9708314B2, “Heterocyclic amide compound” (NISSAN CHEMICAL INDUSTRIES, LTD., priority 2013, dated 2017):

Legend:
Type in all cases: in vivo
[1] = tested on: Echinochloa crus-galli var. crus-galli; test: Test Example 4: herbicidal effect by application to foliage (diluvial soil, plastic box); details: for H: Application herbicide amount 320 g/ha
How it was run: (§1)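 Seeds sown in sterilized diluvial soil, covered ~1.5 cm, grown 14 days in greenhouse at 25° C. to 30° C. Emulsion formulation diluted in water to set rate (g/ha) and sprayed onto stems and leaves. Effect scored visually 3 weeks later on 0–5 scale (5 = ≥90% herbicidal ratio, 0 = ≤5%).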

Lolium multiflorum Lam. = test: as above; details: for K: Application herbicide amount 320 g/ha
How it was run: as §1

Apera spica-venti. = test: as above; details: for L: Application herbicide amount 320 g/ha
How it was run: as §1

Abutilon theophrasti = test: as above; details: for M: Application herbicide amount 320 g/ha
How it was run: as §1

Galium spurium = test: as above; details: for Q: Application herbicide amount 320 g/ha
How it was run: as §1

Avena fatua = test: as above; details: for I: Application herbicide amount 320 g/ha
How it was run: as §1

Chenopodium album = test: as above; details: for O: Application herbicide amount 320 g/ha
How it was run: as §1

Alopecurus myosuroides = test: as above; details: for J: Application herbicide amount 320 g/ha
How it was run: as §1

Setaria viridis = test: as above; details: for G: Application herbicide amount 320 g/ha
How it was run: as §1

Digitaria ciliaris = test: as above; details: for F: Application herbicide amount 320 g/ha
How it was run: as §1

Scirpus juncoides = test: Test Example 2: herbicidal activity, application during weed generation in submerged conditions; details: Eighteenth Table
How it was run: (§2)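 Scored three weeks post-application on a 0–5 scale (5: ≥90% herbicidal ratio, almost withered; 0: ≤5%). Plants raised from mixed-sown seed in submerged alluvial soil (4 cm water), 25–30 °C greenhouse; water-diluted emulsion applied onto water surface at one- to two-leaf stage, dose in g/ha.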

[2] = tested on: Echinochloa oryzacola Vasing.; test: as above; details: Eighteenth Table
How it was run: as §2

Monochoria vaginalis = test: as above; details: Eighteenth Table
How it was run: as §2

Zea mays = test: Test Example 4: effect on crop by application to foliage (diluvial soil, plastic box); details: for b: Application herbicide amount 320 g/ha, effect on crop
How it was run: as §1

Triticum aestivum = test: as above; details: for e: Application herbicide amount 320 g/ha, effect on crop
How it was run: as §1

[3] = tested on: Beta vulgaris ssp. vulgaris; test: as above; details: for f: Application herbicide amount 320 g/ha, effect on crop
How it was run: as §1

Glycine max = test: as above; details: for c: Application herbicide amount 320 g/ha, effect on crop
How it was run: as §1

[4] = tested on: directly sowed Oryza sativa; test: as above; details: for d: Application herbicide amount 320 g/ha, effect on crop
How it was run: as §1

Brassica campestris L. = test: as above; details: for g: Application herbicide amount 320 g/ha, effect on crop
How it was run: as §1

Veronica persica = test: Test Example 4: herbicidal effect by application to foliage (diluvial soil, plastic box)
How it was run: as §1

[5] = application herbicide amount 320 g/ha
[6] = application to foliage, application herbicide amount 320 g/ha
[7] = application to foliage, 141 g/ha
[8] = application herbicide amount 141 g/ha

Compound | H [1] | K (Lolium multiflorum Lam.) | L (Apera spica-venti.) | M (Abutilon theophrasti) | Q (Galium spurium) | I (Avena fatua) | O (Chenopodium album) | J (Alopecurus myosuroides) | G (Setaria viridis) | F (Digitaria ciliaris) | B (Scirpus juncoides) herbicidal ratio grade (Scirpus juncoides; [5]) | A (Echinochloa oryzicola Vasing.) herbicidal ratio grade [2, 5] | C (Monochoria vaginalis) herbicidal ratio grade (Monochoria vaginalis; [5]) | b (Zea mays) | e (Triticum aestivum) | f [3] | c (Glycine max) | d [4] | g (Brassica campestris L.) | other results
Cc1nnc(NC(=O)c2ccc(C(F)(F)F)n3c(C(C)S(C)(=O)=O)nnc23)o1 (centres unmarked) [1-080] | 5 (Herbicidal ratio of 90% or more (almost completely withered)) | 4 (Herbicidal ratio of 70% or more and less than 90%) | 5 (Herbicidal ratio of 90% or more (almost completely withered)) | 5 (Herbicidal ratio of 90% or more (almost completely withered)) | 5 (Herbicidal ratio of 90% or more (almost completely withered)) | 4 (Herbicidal ratio of 70% or more and less than 90%) | 5 (Herbicidal ratio of 90% or more (almost completely withered)) | 5 (Herbicidal ratio of 90% or more (almost completely withered)) | 5 (Herbicidal ratio of 90% or more (almost completely withered)) | 5 (Herbicidal ratio of 90% or more (almost completely withered)) | 3 (Herbicidal ratio of 40% or more and less than 70%) | 5 (Herbicidal ratio of 90% or more (almost completely withered)) | 4 (Herbicidal ratio of 70% or more and less than 90%) | 4 (Herbicidal ratio of 70% or more and less than 90%) | 5 (Herbicidal ratio of 90% or more (almost completely withered)) | 5 (Herbicidal ratio of 90% or more (almost completely withered)) | 4 (Herbicidal ratio of 70% or more and less than 90%) | 5 (Herbicidal ratio of 90% or more (almost completely withered)) | 5 (Herbicidal ratio of 90% or more (almost completely withered)) | 
COc1cc(OC)cc(-c2nnc3c(C(=O)Nc4nnc(C)o4)ccc(C(F)(F)F)n23)c1 [1-070] | 5 (Herbicidal ratio of 90% or more (almost completely withered)) | 0 (Herbicidal ratio of 5% or less (almost no effect)) | 0 (Herbicidal ratio of 5% or less (almost no effect)) | 4 (Herbicidal ratio of 70% or more and less than 90%) | 3 (Herbicidal ratio of 40% or more and less than 70%) | 1 (Herbicidal ratio of 5% or more and less than 20%) | 5 (Herbicidal ratio of 90% or more (almost completely withered)) | 0 (Herbicidal ratio of 5% or less (almost no effect)) | 4 (Herbicidal ratio of 70% or more and less than 90%) | 4 (Herbicidal ratio of 70% or more and less than 90%) | 5 (Herbicidal ratio of 90% or more (almost completely withered)) | 5 (Herbicidal ratio of 90% or more (almost completely withered)) | 5 (Herbicidal ratio of 90% or more (almost completely withered)) | 0 (Herbicidal ratio of 5% or less (almost no effect)) | 0 (Herbicidal ratio of 5% or less (almost no effect)) | 4 (Herbicidal ratio of 70% or more and less than 90%) | 0 (Herbicidal ratio of 5% or less (almost no effect)) | 4 (Herbicidal ratio of 70% or more and less than 90%) | 3 (Herbicidal ratio of 40% or more and less than 70%) | 
Cc1nnc(NC(=O)c2ccc(C(F)(F)F)n3c(C)nnc23)o1 [1-002] |  |  |  |  |  |  |  |  |  |  | 0 (Herbicidal ratio of 5% or less (almost no effect)) | 3 (Herbicidal ratio of 40% or more and less than 70%) | 0 (Herbicidal ratio of 5% or less (almost no effect)) |  |  |  |  |  |  | H (Echinochloa crus-galli var. crus-galli) herbicidal effect [1, 6]: 5 (Herbicidal ratio of 90% or more (almost completely withered)); K (Lolium multiflorum Lam.) herbicidal effect (Lolium multiflorum Lam.; [6]): 2 (Herbicidal ratio of 20% or more and less than 40%); L (Apera spica-venti.) herbicidal effect (Apera spica-venti.; [6]): 1 (Herbicidal ratio of 5% or more and less than 20%); M (Abutilon theophrasti) herbicidal effect (Abutilon theophrasti; [6]): 3 (Herbicidal ratio of 40% or more and less than 70%); Q (Galium spurium) herbicidal effect (Galium spurium; [6]): 4 (Herbicidal ratio of 70% or more and less than 90%); I (Avena fatua) herbicidal effect (Avena fatua; [6]): 3 (Herbicidal ratio of 40% or more and less than 70%); O (Chenopodium album) herbicidal effect (Chenopodium album; [6]): 5 (Herbicidal ratio of 90% or more (almost completely withered)); J (Alopecurus myosuroides) herbicidal effect (Alopecurus myosuroides; [6]): 1 (Herbicidal ratio of 5% or more and less than 20%); G (Setaria viridis) herbicidal effect (Setaria viridis; [6]): 2 (Herbicidal ratio of 20% or more and less than 40%); F (Digitaria ciliaris) herbicidal effect (Digitaria ciliaris; [6]): 4 (Herbicidal ratio of 70% or more and less than 90%); b (Zea mays) effect on crop (Zea mays; [6]): 0 (Herbicidal ratio of 5% or less (almost no effect)); e (Triticum aestivum) effect on crop (Triticum aestivum; [6]): 1 (Herbicidal ratio of 5% or more and less than 20%); f (Beta vulgaris ssp. vulgaris) effect on crop [3, 6]: 5 (Herbicidal ratio of 90% or more (almost completely withered)); c (Glycine max) effect on crop (Glycine max; [6]): 0 (Herbicidal ratio of 5% or less (almost no effect)); d (directly sowed Oryza sativa) effect on crop [4, 6]: 3 (Herbicidal ratio of 40% or more and less than 70%); g (Brassica campestris L.) effect on crop (Brassica campestris L.; [6]): 4 (Herbicidal ratio of 70% or more and less than 90%)
CCN(C)c1nnc2c(C(=O)Nc3nnnn3C)ccc(C(F)(F)F)n12 [2-088] |  |  |  |  |  |  |  |  |  |  |  |  |  |  |  |  |  |  |  | herbicidal effect, H (Echinochloa crus-galli var. crus-galli) [1, 7]: 5 (Herbicidal ratio of 90% or more (almost completely withered)); herbicidal effect, K (Lolium multiflorum Lam.) (Lolium multiflorum Lam.; [7]): 3 (Herbicidal ratio of 40% or more and less than 70%); herbicidal effect, L (Apera spica-venti.) (Apera spica-venti.; [7]): 4 (Herbicidal ratio of 70% or more and less than 90%); herbicidal effect, R (Veronica persica) (Veronica persica; [7]): 4 (Herbicidal ratio of 70% or more and less than 90%); herbicidal effect, M (Abutilon theophrasti) (Abutilon theophrasti; [7]): 5 (Herbicidal ratio of 90% or more (almost completely withered)); herbicidal effect, Q (Galium spurium) (Galium spurium; [7]): 3 (Herbicidal ratio of 40% or more and less than 70%); herbicidal effect, I (Avena fatua) (Avena fatua; [7]): 4 (Herbicidal ratio of 70% or more and less than 90%); herbicidal effect, O (Chenopodium album) (Chenopodium album; [7]): 5 (Herbicidal ratio of 90% or more (almost completely withered)); herbicidal effect, J (Alopecurus myosuroides) (Alopecurus myosuroides; [7]): 3 (Herbicidal ratio of 40% or more and less than 70%); herbicidal effect, G (Setaria viridis) (Setaria viridis; [7]): 5 (Herbicidal ratio of 90% or more (almost completely withered)); herbicidal effect, F (Digitaria ciliaris) (Digitaria ciliaris; [7]): 5 (Herbicidal ratio of 90% or more (almost completely withered)); B (Scirpus juncoides) herbicidal ratio grade (Scirpus juncoides; [8]): 3 (Herbicidal ratio of 40% or more and less than 70%); A (Echinochloa oryzicola Vasing.) herbicidal ratio grade [2, 8]: 4 (Herbicidal ratio of 70% or more and less than 90%); C (Monochoria vaginalis) herbicidal ratio grade (Monochoria vaginalis; [8]): 4 (Herbicidal ratio of 70% or more and less than 90%); effect on crop, e (Triticum aestivum) (Triticum aestivum; [7]): 0 (Herbicidal ratio of 5% or less (almost no effect)); effect on crop, f (Beta vulgaris ssp. vulgaris) [3, 7]: 5 (Herbicidal ratio of 90% or more (almost completely withered)); effect on crop, c (Glycine max) (Glycine max; [7]): 0 (Herbicidal ratio of 5% or less (almost no effect)); effect on crop, d (directly sowed Oryza sativa) [4, 7]: 4 (Herbicidal ratio of 70% or more and less than 90%); effect on crop, g (Brassica campestris L.) (Brassica campestris L.; [7]): 5 (Herbicidal ratio of 90% or more (almost completely withered))
C=CC[S+]([O-])c1nnc2c(C(=O)Nc3nnc(C)o3)ccc(C(F)(F)F)n12 (centres unmarked) [1-074] | 5 (Herbicidal ratio of 90% or more (almost completely withered)) | 0 (Herbicidal ratio of 5% or less (almost no effect)) | 0 (Herbicidal ratio of 5% or less (almost no effect)) |  | 3 (Herbicidal ratio of 40% or more and less than 70%) | 1 (Herbicidal ratio of 5% or more and less than 20%) | 5 (Herbicidal ratio of 90% or more (almost completely withered)) | 0 (Herbicidal ratio of 5% or less (almost no effect)) | 4 (Herbicidal ratio of 70% or more and less than 90%) | 4 (Herbicidal ratio of 70% or more and less than 90%) | 0 (Herbicidal ratio of 5% or less (almost no effect)) | 2 (Herbicidal ratio of 20% or more and less than 40%) | 0 (Herbicidal ratio of 5% or less (almost no effect)) | 0 (Herbicidal ratio of 5% or less (almost no effect)) | 0 (Herbicidal ratio of 5% or less (almost no effect)) | 4 (Herbicidal ratio of 70% or more and less than 90%) | 0 (Herbicidal ratio of 5% or less (almost no effect)) | 3 (Herbicidal ratio of 40% or more and less than 70%) | 3 (Herbicidal ratio of 40% or more and less than 70%) | R (Veronica persica; Application herbicide amount 320 g/ha): 3 (Herbicidal ratio of 40% or more and less than 70%)
